Test results reported in patent US5840684A, “Glycopeptide antibiotic derivatives” (Eli Lilly and Company, priority 1995, dated 1998).
Values after ≈ are worked out from the molar mass of the structure shown. Values joined by “and” are separate entries in the source; they are usually repeats but may differ in a detail not shown here. Identical values can stand only once.

What was measured:
Streptococcus pneumoniae = experiment: mouse protection, experimentally-induced infection; assay type: in vivo; settings: mice infected with Streptococcus pneumoniae, two doses
[1] = tested on: vancomycin-resistant enterococci; experiment: broth micro-dilution, mean geometric MIC; assay type: cell-based, Enterococcus faecium and Enterococcus faecalis; settings: enterococci, 24-hour incubation
Streptococcus pyogenes = experiment: mouse protection, experimentally-induced infection; assay type: in vivo; settings: mice infected with Streptococcus pyogenes, two doses
[2] = tested on: vancomycin-susceptible enterococci; experiment: broth micro-dilution, mean geometric MIC; assay type: cell-based, Enterococcus faecium and Enterococcus faecalis; settings: enterococci, 24-hour incubation
[3] = tested on: Staphylococcus aureus S13E; assay type: cell-based
Description: (§1) The MIC's were determined using a standard broth micro-dilution assay.

[4] = tested on: Staphylococcus haemolyticus 415; experiment: broth micro-dilution MIC; assay type: cell-based
Description: (§2) The formula I compounds have in vitro and in vivo activity against Gram-positive pathogenic bacteria. The MIC's were determined using a standard broth micro-dilution assay.

Entercoccus faecium 2041 = experiment: broth micro-dilution MIC; assay type: cell-based; settings: Entercoccus faecium 2041
Description: as §2

[5] = tested on: Staphylococcus epidermidis 270; experiment: broth micro-dilution MIC; assay type: cell-based
Description: as §2

[6] = tested on: Streptococcus pneumoniae P1; experiment: broth micro-dilution MIC; assay type: cell-based
Description: as §2

[7] = tested on: Enterococcus gallinarum 245; experiment: broth micro-dilution MIC; assay type: cell-based; settings: Enterococcus gallinarum 245
Description: as §2

[8] = tested on: Staphylococcus aureus SA1199A; experiment: broth micro-dilution MIC; assay type: cell-based
Description: as §1

[9] = tested on: Staphylococcus aureus SA1199; experiment: broth micro-dilution MIC; assay type: cell-based
Description: as §1

[10] = tested on: Staphylococcus aureus 447; experiment: broth micro-dilution MIC; assay type: cell-based
Description: as §1

Entercoccus faecium 276 = experiment: broth micro-dilution MIC; assay type: cell-based
Description: as §1

[11] = tested on: Staphylococcus aureus X778; experiment: broth micro-dilution MIC; assay type: cell-based
Description: as §1

[12] = tested on: Entercoccus faecium 180-1; experiment: broth micro-dilution MIC; assay type: cell-based
Description: as §1

[13] = tested on: Staphylococcus aureus SA1199B; assay type: cell-based
Description: as §1

[14] = tested on: Staphylococcus haemolyticus 105; experiment: broth micro-dilution MIC; assay type: cell-based
Description: as §2

Entercoccus faecium 180 = experiment: broth micro-dilution MIC; assay type: cell-based; settings: Entercoccus faecium 180
Description: as §2

[15] = tested on: Staphylococcus aureus 446; experiment: broth micro-dilution MIC; assay type: cell-based
Description: as §1

[16] = tested on: Streptococcus pyogenes C203; experiment: broth micro-dilution MIC; assay type: cell-based
Description: as §1

[17] = tested on: Staphylococcus aureus X400; experiment: broth micro-dilution MIC; assay type: cell-based
Description: as §1

| SMILES | ED50 (Streptococcus pneumoniae) [mg/kg/2] | mean geometric MIC, Vancomycin Resistant Strains [1] [mg/L] | ED50 (Streptococcus pyogenes) [mg/kg/2] | mean geometric MIC, Vancomycin Sensitive Strains [2] [mg/L] | MIC [3] [mg/L] | MIC [4] | MIC (Entercoccus faecium 2041) [mg/L] | MIC [5] | MIC [6] [mg/L] | MIC [7] [mg/L] | MIC [9] [mg/L] | MIC [10] [mg/L] | MIC (Entercoccus faecium 276) [mg/L] | MIC [11] [mg/L] | MIC [12] [mg/L] | MIC [13] [mg/L] | MIC [14] [mg/L] | MIC (Entercoccus faecium 180) [mg/L] | MIC [15] [mg/L] | MIC [16] [mg/L] | other results |
| --- | --- | --- | --- | --- | --- | --- | --- | --- | --- | --- | --- | --- | --- | --- | --- | --- | --- | --- | --- | --- | --- |
| CNC(CC(C)C)C(=O)NC1C(=O)NC(CC(N)=O)C(=O)NC2C(=O)NC3C(=O)NC(C(=O)NC(C(=O)O)c4cc(O)cc(O)c4-c4cc3ccc4O)C(OC3CC(C)(N)C(O)C(C)O3)c3ccc(c(Cl)c3)Oc3cc2cc(c3OC2OC(CO)C(O)C(O)C2OC2CC(C)(NCc3ccc(C(c4ccccc4)c4ccccc4)cc3)C(O)C(C)O2)Oc2ccc(cc2Cl)C1O (centres unmarked) [Compound 46] | 0.156 | 0.71 | 0.378 | 0.50 |  |  |  |  |  |  |  |  |  |  |  |  |  |  |  |  |  |
| CNC(CC(C)C)C(=O)NC1C(=O)NC(CC(N)=O)C(=O)NC2C(=O)NC3C(=O)NC(C(=O)NC(C(=O)O)c4cc(O)cc(O)c4-c4cc3ccc4O)C(OC3CC(C)(N)C(O)C(C)O3)c3ccc(c(Cl)c3)Oc3cc2cc(c3OC2OC(CO)C(O)C(O)C2OC2CC(C)(NCc3ccc(-c4ccc([N+](=O)[O-])cc4)cc3)C(O)C(C)O2)Oc2ccc(cc2Cl)C1O (centres unmarked) [Compound 64] | < 0.031 | 0.71 | 0.044 | 0.077 | 2 (≈ 1.11 µM) | 2 mg/L (≈ 1.11 µM) | ≤ 0.06 | 0.5 mg/L (≈ 0.277 µM) | ≤ 0.06 | 2 (≈ 1.11 µM) | 1 (≈ 0.554 µM) | 0.5 (≈ 0.277 µM) | 0.5 (≈ 0.277 µM) | 2 (≈ 1.11 µM) | ≤ 0.06 |  |  |  |  |  | MIC [8]: ≤ 0.06 mg/L |
| CNC(CC(C)C)C(=O)NC1C(=O)NC(CC(N)=O)C(=O)NC2C(=O)NC3C(=O)NC(C(=O)NC(C(=O)O)c4cc(O)cc(O)c4-c4cc3ccc4O)C(OC3CC(C)(N)C(O)C(C)O3)c3ccc(c(Cl)c3)Oc3cc2cc(c3OC2OC(CO)C(O)C(O)C2OC2CC(C)(NCc3ccc(-c4ccc(F)cc4)cc3)C(O)C(C)O2)Oc2ccc(cc2Cl)C1O (centres unmarked) [Compound 211] | 0.041 | 0.35 | < 0.031 | 0.024 | 0.5 (≈ 0.281 µM) | 0.5 mg/L (≈ 0.281 µM) | ≤ 0.06 | 0.5 mg/L (≈ 0.281 µM) | ≤ 0.06 | ≤ 0.06 | 0.5 (≈ 0.281 µM) | 0.5 (≈ 0.281 µM) | ≤ 0.06 | 1 (≈ 0.563 µM) | ≤ 0.06 | 1 (≈ 0.563 µM) | 0.5 (≈ 0.281 µM) | ≤ 0.06 | 1 (≈ 0.563 µM) | ≤ 0.06 | MIC [17]: 0.5 mg/L (≈ 0.281 µM) |
| CNC(CC(C)C)C(=O)NC1C(=O)NC(CC(N)=O)C(=O)NC2C(=O)NC3C(=O)NC(C(=O)NC(C(=O)O)c4cc(O)cc(O)c4-c4cc3ccc4O)C(OC3CC(C)(N)C(O)C(C)O3)c3ccc(c(Cl)c3)Oc3cc2cc(c3OC2OC(CO)C(O)C(O)C2OC2CC(C)(NCc3ccc(CCc4ccccc4)cc3)C(O)C(C)O2)Oc2ccc(cc2Cl)C1O (centres unmarked) [Compound 100] | 0.046 | 0.71 | 0.062 | 0.042 |  | 2 mg/L and 4 mg/L | ≤ 0.06 | 0.5 mg/L and 0.25 mg/L | ≤ 0.06 | 2 (≈ 1.12 µM) |  |  |  |  | ≤ 0.06 | 0.5 (≈ 0.28 µM) | 1 (≈ 0.56 µM) | 0.25 (≈ 0.14 µM) | 1 (≈ 0.56 µM) | ≤ 0.06 |  |
